Experimental data taken from patent US4879300A, “Novel piperidine derivatives” (Dr. Lo. Zambeletti S.p.A., priority 1986, dated 1989).
Read-outs that look alike come from different tables or passages of the source.

Key:
mice = assay: Mouse tail-flick test (analgesic activity); type: in vivo, mouse (male Charles River)
μ receptor = μ receptor (Cavia porcellus, UniProt A0ACM8Q262); assay: Receptor binding to μ sites (3H-DAGO, guinea pig brain homogenate); conditions: 25° C., 40 min, read-out: Receptor binding μ (kj)
μ receptor, sequence (A0ACM8Q262 1-400): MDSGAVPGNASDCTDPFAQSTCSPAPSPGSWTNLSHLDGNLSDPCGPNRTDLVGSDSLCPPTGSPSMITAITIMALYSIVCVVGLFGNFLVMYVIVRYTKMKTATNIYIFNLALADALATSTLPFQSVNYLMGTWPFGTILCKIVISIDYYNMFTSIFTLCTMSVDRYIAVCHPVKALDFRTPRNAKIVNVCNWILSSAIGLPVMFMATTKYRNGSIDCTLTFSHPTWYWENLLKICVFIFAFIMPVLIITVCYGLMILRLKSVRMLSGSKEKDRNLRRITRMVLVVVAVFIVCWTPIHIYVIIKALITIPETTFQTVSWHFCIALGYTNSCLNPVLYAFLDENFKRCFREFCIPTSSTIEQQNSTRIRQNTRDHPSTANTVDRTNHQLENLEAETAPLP
Procedure: (§1) Radio receptor binding to μ and K sites is performed on fresh guinea pig brain homogenate prepared according to Kosterlitz. (1981).
(§2) Whole brain without cerebellum is homogenized in 50 mM, Tris-buffer (pH 7.4 at 0° C.) and centrifuged at 49,000 ×g×10 min.
(§3) The pellet is then resuspended in the same buffer, incubated at 37° C. for 45 min. and centrifuged again.
(§4) 1.9 ml of the final homogenate (1:100 in Tris-pH 7.4, 0° C.) is used for the binding assay.
Binding to μ sites (Magnan J., 1982)
^3 H [D-Ala^2, MePhe^4, Gly-ol^5 ] Enkephalin (^3 H--DAGO), an enkephalin analogue that binds selectively to μ receptor, is added to the biological substrate and incubated at 25° C. for 40 min., filtered through Whatman GF-C and washed with ice-cold Tris-buffer.
The filters are then dryed, solubilized in Filtercount and the radioactivity monitored. Non specific binding is determined in the presence of 10^-6 M Naloxone.
(§5) For the calculation of the kinetic parameters of the binding of labelled and unlabelled ligands, the equilibrium dissociation constant (KD), the inhibition constant (Ki) and the maximum number of binding sites (B max) are determined from saturation curves and competition experiments (Hill 1910; Scatchard 1949; Cheng and Prusoff 1973; Gillan et al. 1980).
A concentration of radioligand near KD is used in the binding assays evaluating our compounds.

[1] = target: T1, K receptor (Kappa opioid receptor) (Cavia porcellus, UniProt P41144); assay: Receptor binding to K sites (tritiated Ethylketocyclazocine, guinea pig brain homogenate); conditions: tritiated Ethylketocyclazocine with 100 nM DADLE and 100 nM DAGO, 25° C., 40 min, read-out: Receptor binding k (kj)
T1 construct: fresh guinea pig brain homogenate; from tissue; host or cells: guinea pig whole brain without cerebellum, homogenate
T1 sequence (P41144 whole entry): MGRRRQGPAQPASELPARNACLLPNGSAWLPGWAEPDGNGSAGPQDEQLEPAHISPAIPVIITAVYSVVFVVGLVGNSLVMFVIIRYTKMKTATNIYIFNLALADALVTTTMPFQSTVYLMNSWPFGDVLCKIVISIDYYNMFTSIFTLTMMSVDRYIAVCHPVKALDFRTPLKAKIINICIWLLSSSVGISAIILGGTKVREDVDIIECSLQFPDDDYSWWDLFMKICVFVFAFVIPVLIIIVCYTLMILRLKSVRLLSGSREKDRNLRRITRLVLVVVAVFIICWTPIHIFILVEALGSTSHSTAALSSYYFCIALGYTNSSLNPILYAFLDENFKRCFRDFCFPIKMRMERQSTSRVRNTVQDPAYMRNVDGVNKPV
Procedure: as §1, §2, §3, §4
Binding to K sites (Magnan J., 1982)
The binding of tritiated Ethylketocyclazocine to brain homogenate is measured the in presence of 100 nanomolar D-Ala-D-LeuEnkephalin (DADLE) and 100 nanomolar DAGO, added to saturate the δ and μ opioid receptors respectively.
Final homogenate with solutions of the cold ligand and of the labelled ligand is incubated for 40 min. at 25° C., filtered through Whatman GF/C glass filter discs and washed.
The radioactivity bound to the filters is counted by liquid scintillation spectrophotometry.
MR 2266.500 nM is utilized to determine the saturable binding.
as §5, with “1980). […]” for “1980).”

[2] = sc, 0.5 h, s.c., reaction time recorded 30 min after dosing, % mice doubling initial time, read-out: Mouse tail-flick ED50 (s.c.)

Compound | ED50 (mice; po, read-out: Mouse tail-flick ED50 (p.o.)) [mg/kg] | ED50 (mice; [2]) [mg/kg] | Ki (μ receptor) [µM] | Ki [1] [µM]
CC(C1CCCCN1C(=O)Cc1ccc(Cl)c(Cl)c1)N(C)C.Cl (single isomer, unassigned; diastereoisomer b) [Example 4, 1-(3,4-dichlorophenylacetyl)-2-(1-dimethylaminoethyl) piperidine hydrochloride--Diastereoisomer B] | 0.75 | 0.41 | 0.913 | 0.0023
CC(C1CCCCN1C(=O)Cc1ccc(Cl)c(Cl)c1)N1CCCC1 (single isomer, unassigned; diastereoisomer b) [Example 2, 1-(3,4-dichlorophenylacetyl)-2-[1-(1-pyrrolidinyl)ethylpiperidine]--Diastereoisomer B] |  | 4.12 |  | 
